This is an account of results in PMC9416257, “Design, Synthesis and Preliminary Evaluation of the Cytotoxicity and Antibacterial Activity of Novel Triphenylphosphonium Derivatives of Betulin” (Molecules, 2022).

Test [1] deals with NHDF (Normal Human Dermal Fibroblast cells). The test is described as follows: Cytotoxicity, CCK-8 cell viability assay (safety on normal cells). The format is cell-based. The settings on record: CCK-8 assay, incubation time 24 h, mean ± SD (n = 3), read-out: Activity IC50, NHDF. On the procedure: (§1) The obtained new molecular hybrids of BN were screened in order to initially investigate their cytotoxicity as well as examine the relationships between the structure and biological effect. The common element of all of the tested compounds was the presence of a lipophilic moiety (CH2)nTPP^⊕ (n = 3, 4, 5). The research was conducted on two groups of compounds: 28-TPP^⊕ BN and 3,28-bisTPP^⊕ BN. Their cytotoxicity was investigated on two cancer cell lines: HCT 116 (colorectal carcinoma cell line) and MCF-7 (human breast adenocarcinoma cell line). The proliferation of tumor cells treated with the tested compounds (7 and 9) at 12.5–3.125 µM concentrations were determined after 24 h of incubation. Additionally, all compounds were tested against the NHDF cell line (Normal Human Dermal Fibroblast cells) to assess their safety. Half-maximal inhibitory concentrations (IC50) of triphenylphosphonium analogs of BN were determined using a CCK-8 assay and are summarized in Table 2.
(§2) The human colorectal carcinoma cell line (HCT 116) and the human breast adenocarcinoma cell line (MCF-7) cells were purchased from the American Type Culture Collection (ATCC, Manassas, VA, USA). The Normal Human Dermal Fibroblast (NHDF) cells were purchased from Lonza (Dermal Fibroblasts, Lonza, Poland). All cells were cultured under standard conditions at 37 °C in a humidified atmosphere at 5% CO2 in DMEM/F12 medium (PAA) supplemented with 10% of heat-inactivated fetal bovine serum (FBS, EURx, Gdansk, Poland) and antibiotics (penicillin/streptomycin).
(§3) Cells were seeded at 7500 (HCT 116) or 10,000 (MCF-7, NHDF) cells/well in 96-well plates. After 24 h, the culture medium was removed and 100 µL of fresh medium containing the test compounds at 0–12.5 µM concentrations was added to the culture wells. The test compounds were dissolved in DMSO to obtain a stock solution with a concentration of 5 mM (betulin) or 10 mM (other test compounds). The stock solution was diluted with the fresh culture medium to the desired concentration. Controls were cells grown in medium without the addition of test compounds. After 24 h of incubation with the test compounds, 10 µL of CCK-8 reagent (Bimake, Houston, TX, USA) was added to each well. After 2 h, the absorbance of the samples was measured at a wavelength of 450 nm using a microplate reader (Epoch, BioTek Instruments, Winooski, VT, USA). The determinations were conducted in at least three biological replications (each biological replication contained 3 technical replications). The cell viability rate was calculated using CalcuSyn software (version 2.0, Biosoft, Cambridge, UK).
(In general: Tetrazolium dyes change colour on reduction, which living cells bring about.)

The subject of test [2] is S. epidermidis ATCC 12228. The test is described as follows: Antibacterial assay, optical density of culture in TSB. The format is cell-based, Staphylococcus epidermidis. The settings on record: 18 h; for Difference between optical density before and after culture, S. epidermidis ATCC 12228: 37 °C; for Inhibition of growth of S. epidermidis ATCC 12228 (in words): 250 µM. On the procedure:
(§4) Investigations were carried out using different concentrations of solutions from 25 to 250 µM. A 25 µM concentration of the tested derivatives was not enough to inhibit the growth of […]. When the concentration of analogs 7d–7f and 9a–9c increased to 200 µM, the growth of S. aureus ATCC 25923 and S. epidermidis ATCC 12228 was inhibited. Furthermore, the optical density of all compounds remained unchanged after 18 h of bacteria culture. In the case of analogs 7a–7c, the optical density values were between 0.9 and 2.2 when they were cultured with S. aureus ATCC 25923. The bacterial growth was slower compared to the control sample (TSB-culture medium). […] In the case of analog 7c, the optical density increased up to […] after 18 h of the sample culture with both kinds of Gram-positive bacteria. In contrast, the reference sample’s (TSB) optical density increased to 7.5 for S. aureus ATCC 25923, and 4.9 for S. epidermidis ATCC 12228 after 18 h of bacteria culture. […] All of the analog values of the measured optical density were similar to that of the reference sample (5.0–5.1, Table 3).
(§5) Antibacterial analysis was performed using the S. aureus ATCC 25923, S. epidermidis ATCC 12228, and Escherichia coli ATCC 25922 bacteria strains. The test compounds were dissolved in DMSO to obtain a stock solution with a concentration of 5 mM (betulin) or 10 mM (other test compounds). The stock solution was diluted with water to the desired concentration (25–250 µM). Then, 1 mL of the investigated solutions was mixed with 1 mL of culture medium (TSB, Biomaxima, Lublin, Poland) in a sterile glass tube. The initial concentration of bacteria was around 5 × 10^6 CFU/mL. The concentration of bacteria was measured using an optical densitometer before and after 18 h of bacteria culture in glass tubes at 37 °C (incubator POL-EKO, Wodzislaw Slaski, Poland). The investigations were repeated for three independent samples. The control sample was the culture medium without any supplementation.

Test [3] concerns MCF-7 (human breast adenocarcinoma cell line). As to the kind of experiment: Cytotoxicity, CCK-8 cell viability assay. The format is cell-based. The settings on record: MCF7, CCK-8 assay, incubation time 24 h, mean ± SD (n = 3), read-out: Activity IC50, MCF-7. The method, then:
as §1, §2
as §3, with “After 24 h, the culture medium was removed and 100 µL of fresh medium containing the test compounds at 0–12.5 µM concentrations was added to the culture wells.” left out

Test [4] deals with S. aureus ATCC 25923. As to the kind of experiment: Antibacterial assay, optical density of culture in TSB. The format is cell-based, Staphylococcus aureus. The conditions noted are these: 18 h; for Difference between optical density before and after culture, S. aureus ATCC 25923: 37 °C; for Inhibition of growth of S. aureus ATCC 25923 (in words): 250 µM. The method, then:
as §4, §5

Test [5] relates to Escherichia coli ATCC 25922. The test is described as above. The format is cell-based. The settings on record: 37 °C, 18 h. On the procedure:
as §4, §5

Test [6] has as its system HCT 116 (colorectal carcinoma cell line). The test is described as follows: Cytotoxicity, CCK-8 cell viability assay. The settings on record: Homo sapiens, HCT-116; CCK-8 assay; incubation time 24 h; mean ± SD (n = 3); read-out: Activity IC50, HCT 116. The format is cell-based. On the procedure:
as §1, §2, §3
Wherever Difference between optical density before and after culture, Escherichia coli ATCC 25922 is given: key: 0: no difference between samples after 18 h of bacteria culture (bacteria grow was inhibited); neg: negative results (analog BN did not inhibit bacteria growing).

What is called IC50 is the concentration needed to halve the response being measured. With `C=C(C)[C@@H]1CC[C@]2(COC(=O)CCC(=O)OCCC[P+](c3ccccc3)(c3ccccc3)c3ccccc3)CC[C@]3(C)C(CCC4[C@@]5(C)CC[C@H](OC(C)=O)C(C)(C)C5CC[C@]43C)C12` (some centres unmarked) [7a, 3-O-Acetyl-28-O’-(3’-(3"-triphenylphosphoniopropyloxycarbonyl)propanoyl)betulin bromide], the IC50 is 9.68 ± 0.27 µM in test [1], 13.7 ± 0.54 µM in test [3] and 5.56 ± 0.28 µM in test [6]. For the same compound, the “Difference between optical density before and after culture, S. epidermidis ATCC 12228” value in test [2] (200 μM) is given as “neg”; in test [2] (250 μM), 0. For the same compound, in test [2], the “Inhibition of growth of S. epidermidis ATCC 12228 (in words)” value is reported as “greatly inhibited the growth”. Also, the “Difference between optical density before and after culture, S. aureus ATCC 25923” value in test [4] (200 μM) was 0.9 McFarland’s scale (CFU/mL); in test [4] (250 μM), 0. In addition, the “Inhibition of growth of S. aureus ATCC 25923 (in words)” value in test [4] was “greatly inhibited the growth”. The “Difference between optical density before and after culture, Escherichia coli ATCC 25922” value in test [5] (200 μM) and in test [5] (250 μM) was “neg” throughout.

As to `C=C(C)[C@@H]1CC[C@]2(COC(=O)CCC(=O)OCCCC[P+](c3ccccc3)(c3ccccc3)c3ccccc3)CC[C@]3(C)C(CCC4[C@@]5(C)CC[C@H](OC(C)=O)C(C)(C)C5CC[C@]43C)C12` (some centres unmarked) [7b, 3-O-Acetyl-28-O’-(3’-(4"-triphenylphosphoniobutyloxycarbonyl)propanoyl)betulin bromide], the IC50 in test [1] was determined as 10.7 ± 0.25 µM; in test [3] it was 14.3 ± 0.38 µM; in test [6], 5.77 ± 0.27 µM. For the same compound, the “Difference between optical density before and after culture, S. epidermidis ATCC 12228” value in test [2] (200 μM) is on record as “neg”; in test [2] (250 μM) it was 0. In addition, the “Inhibition of growth of S. epidermidis ATCC 12228 (in words)” value in test [2] is “greatly inhibited the growth”. For the same compound, the “Difference between optical density before and after culture, S. aureus ATCC 25923” value in test [4] (200 μM) was 2.2 McFarland’s scale (CFU/mL); in test [4] (250 μM), 0. The “Inhibition of growth of S. aureus ATCC 25923 (in words)” value in test [4] is “greatly inhibited the growth”. Further, the “Difference between optical density before and after culture, Escherichia coli ATCC 25922” value in test [5] (200 μM) and in test [5] (250 μM) was “neg” in each case.

As for `C=C(C)[C@@H]1CC[C@]2(COC(=O)CCC(=O)OCCCCC[P+](c3ccccc3)(c3ccccc3)c3ccccc3)CC[C@]3(C)C(CCC4[C@@]5(C)CC[C@H](OC(C)=O)C(C)(C)C5CC[C@]43C)C12` (some centres unmarked) [7c, 3-O-Acetyl-28-O’-(3’-(5"-triphenylphosphoniopentyloxycarbonyl)propanoyl)betulin bromide], the IC50 turned out to be 11.3 ± 0.53 µM in test [1], 15.5 ± 0.92 µM in test [3] and 6.48 ± 0.04 µM in test [6]. In test [2] (200 μM), the “Difference between optical density before and after culture, S. epidermidis ATCC 12228” value is given as “neg”. In addition, in test [4] (200 μM), the “Difference between optical density before and after culture, S. aureus ATCC 25923” value is 1.0 McFarland’s scale (CFU/mL). The “Difference between optical density before and after culture, Escherichia coli ATCC 25922” value in test [5] (200 μM) and in test [5] (250 μM) was “neg” each time.

As for `C=C(C)[C@@H]1CC[C@]2(COC(=O)CC(C)(C)C(=O)OCCC[P+](c3ccccc3)(c3ccccc3)c3ccccc3)CC[C@]3(C)C(CCC4[C@@]5(C)CC[C@H](OC(C)=O)C(C)(C)C5CC[C@]43C)C12` (some centres unmarked) [7d, 3-O-Acetyl-28-O’-(3’,3’-dimethyl-3’-(3"-triphenylphosphoniopropyloxycarbonyl)propanoyl)betulin bromide], the “Difference between optical density before and after culture, S. epidermidis ATCC 12228” value in test [2] (200 μM) and in test [2] (250 μM) was 0 in each case. In addition, the “Difference between optical density before and after culture, S. aureus ATCC 25923” value in test [4] (200 μM) and in test [4] (250 μM) was 0 each time. In addition, the “Difference between optical density before and after culture, Escherichia coli ATCC 25922” value in test [5] (200 μM) and in test [5] (250 μM) was “neg” in each case.

In the case of `C=C(C)[C@@H]1CC[C@]2(COC(=O)CC(C)(C)C(=O)OCCCC[P+](c3ccccc3)(c3ccccc3)c3ccccc3)CC[C@]3(C)C(CCC4[C@@]5(C)CC[C@H](OC(C)=O)C(C)(C)C5CC[C@]43C)C12` (some centres unmarked) [7e, 3-O-Acetyl-28-O’-(3’,3’-dimethyl-3’-(4"-triphenylphosphoniobutyloxycarbonyl)propanoyl)betulin bromide], the “Difference between optical density before and after culture, S. epidermidis ATCC 12228” value in test [2] (200 μM) and in test [2] (250 μM) was 0 in each case. Also, the “Difference between optical density before and after culture, S. aureus ATCC 25923” value in test [4] (200 μM) and in test [4] (250 μM) was 0 each time. Besides, the “Difference between optical density before and after culture, Escherichia coli ATCC 25922” value in test [5] (200 μM) and in test [5] (250 μM) was “neg” each time.

Take `C=C(C)[C@@H]1CC[C@]2(COC(=O)CC(C)(C)C(=O)OCCCCC[P+](c3ccccc3)(c3ccccc3)c3ccccc3)CC[C@]3(C)C(CCC4[C@@]5(C)CC[C@H](OC(C)=O)C(C)(C)C5CC[C@]43C)C12` (some centres unmarked) [7f, 3-O-Acetyl-28-O’-(3’,3’-dimethyl-3’-(5"-triphenylphosphoniopentyloxycarbonyl)propanoyl)betulin bromide]: the IC50 in test [1] came out at 10 ± 0.48 µM; in test [3], 50.5 ± 3.92 µM; in test [6], 12.7 ± 0.89 µM. Further, the “Difference between optical density before and after culture, S. epidermidis ATCC 12228” value in test [2] (200 μM) and in test [2] (250 μM) was 0 throughout. Moreover, the “Difference between optical density before and after culture, S. aureus ATCC 25923” value in test [4] (200 μM) and in test [4] (250 μM) was 0 in each case. For the same compound, the “Difference between optical density before and after culture, Escherichia coli ATCC 25922” value in test [5] (200 μM) and in test [5] (250 μM) was “neg” each time.
